According to the supplement of paper PMC7017272:
± gives the standard deviation of the averaged measurements.

Assays:
Conditions in all cases: treatment time: 3 days
[1] = test system: UT-SCC-24A; experiment: drug sensitivity score (DSS); higher = more sensitive
Method: (§1)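 HNSCC cell lines (500 cells/well, 384-well) were cultured on plastic, on top of (2D) or embedded (3D) in Matrigel or human leiomyoma matrix Myogel (500 ug/mL; Myogel 3D mixed with rat collagen I). Cells were treated for 3 days with 5 ten-fold concentrations of each drug, and viability was read by CellTiter-Glo. Suffixes _1/_2/_3 on drug names are replicates.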

[2] = test system: UT-SCC-106A; experiment: maximal % inhibition of viability relative to DMSO; higher = stronger effect
How it was run: (§2)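 HPV-negative HNSCC cell lines were seeded at 500 cells/well in 384-well plates on plastic, on Matrigel- or Myogel-coated wells (500 µg/mL), or embedded in Matrigel or Myogel plus rat collagen I. Compounds were given at five 10-fold concentrations for 3 days, and viability was read by CellTiter-Glo 2.0 luminescence. Signals were normalised to vehicle (0.1% DMSO) and cell-killing control wells. Percent-inhibition dose–response curves were fitted in the FIMM pipeline to derive IC50, maximal inhibition and drug sensitivity score.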

[3] = test system: UT-SCC-44; experiment: as above
How it was run: as §2

[4] = test system: UT-SCC-73; experiment: as above
How it was run: as §2

[5] = test system: UT-SCC-24A; experiment: maximal % inhibition of viability relative to DMSO; higher = stronger effect
Method: as §1, with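 “CellTiter-Glo. Viability was normalised to DMSO (0% inhibition) and 100 uM benzethonium chloride (100% inhibition) controls and fitted with the FIMM DSRT pipeline to give IC50 (nM), maximal % inhibition and the drug sensitivity score (DSS).” for “CellTiter-Glo.”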

[6] = test system: UT-SCC-106A; experiment: drug sensitivity score (DSS); higher = more sensitive; extreme values may be limits of the assay
How it was run: as §2

[7] = test system: UT-SCC-14; experiment: as above
How it was run: as §2

[8] = test system: UT-SCC-24B; experiment: as above
How it was run: as §2

[9] = test system: UT-SCC-28; experiment: as above
How it was run: as §2

[10] = test system: UT-SCC-40; experiment: as above
How it was run: as §2

[11] = test system: UT-SCC-42A; experiment: as above
How it was run: as §2

[12] = test system: UT-SCC-42B; experiment: as above
How it was run: as §2

[13] = test system: UT-SCC-44; experiment: as above
How it was run: as §2

[14] = test system: UT-SCC-73; experiment: as above
How it was run: as §2

[15] = test system: UT-SCC-81; experiment: as above
How it was run: as §2

[16] = test system: UT-SCC-8; experiment: as above
How it was run: as §2

[17] = culture condition: embedded in Matrigel
[18] = culture condition: embedded in Myogel + collagen I
[19] = culture condition: on top of Matrigel
[20] = culture condition: on top of Myogel
[21] = culture condition: plastic 2D (no matrix)

Work on `COc1ccc(-c2cc3c(C)nc(N)nc3n([C@H]3CC[C@H](OCCO)CC3)c2=O)cn1` yielded a drug sensitivity score [1, 17] of 17 ± 7.7 DSS, a drug sensitivity score [1, 18] of 9.63 ± 6.9 DSS and a drug sensitivity score [1, 19] of 11.9 ± 4.7 DSS. The drug sensitivity score [1, 20] was 5.83 ± 2.9 DSS, the drug sensitivity score [1, 21] was 11.4 ± 7.7 DSS and the “maximal % inhibition of viability” value [2, 17] was 72.2 ± 2.7%. For the same molecule, the “maximal % inhibition of viability” value [2, 18] was 58.5 ± 8.7%, the “maximal % inhibition of viability” value [2, 19] was 75.6 ± 2.8% and the “maximal % inhibition of viability” value [2, 20] was 61.7 ± 13%. The “maximal % inhibition of viability” value [2, 21] was 76.8 ± 4.8%, the “maximal % inhibition of viability” value [3, 17] was 45.9 ± 6.3% and the “maximal % inhibition of viability” value [3, 18] was 40.2 ± 19%. The “maximal % inhibition of viability” value [3, 19] was 44.7 ± 10%, the “maximal % inhibition of viability” value [3, 20] was 43 ± 11% and the “maximal % inhibition of viability” value [3, 21] was 43.2 ± 15%. For the same molecule, the “maximal % inhibition of viability” value [4, 17] was 87.9 ± 5%, the “maximal % inhibition of viability” value [4, 18] was 79.9 ± 16% and the “maximal % inhibition of viability” value [4, 19] was 82.7 ± 12%. The “maximal % inhibition of viability” value [4, 20] was 80 ± 14%, the “maximal % inhibition of viability” value [4, 21] was 85.4 ± 6.6% and the “maximal % inhibition of viability” value [5, 17] was 79.2 ± 19%. For the same molecule, the “maximal % inhibition of viability” value [5, 18] was 61.6 ± 18%, the “maximal % inhibition of viability” value [5, 19] was 71.5 ± 12% and the “maximal % inhibition of viability” value [5, 20] was 54.5 ± 16%. For the same molecule, the “maximal % inhibition of viability” value [5, 21] was 72.1 ± 23%, the drug sensitivity score [6, 17] was 17.5 ± 1.9 DSS and the drug sensitivity score [6, 18] was 9.13 ± 3.2 DSS. It also gave a drug sensitivity score [6, 19] of 15 ± 3.7 DSS, a drug sensitivity score [6, 20] of 8.9 ± 4.4 DSS and a drug sensitivity score [6, 21] of 15.3 ± 3 DSS. For the same molecule, the drug sensitivity score [7, 17] was 14.9 ± 7.8 DSS, the drug sensitivity score [7, 18] was 8.67 ± 4.7 DSS and the drug sensitivity score [7, 19] was 12.8 ± 5.7 DSS. It also gave a drug sensitivity score [7, 20] of 9.9 ± 2.5 DSS, a drug sensitivity score [7, 21] of 9.5 ± 2 DSS and a drug sensitivity score [8, 17] of 15.4 ± 3.6 DSS. For the same molecule, the drug sensitivity score [8, 18] was 19.8 ± 1.6 DSS, the drug sensitivity score [8, 19] was 16.1 ± 1.8 DSS and the drug sensitivity score [8, 20] was 13.9 ± 1.9 DSS. For the same molecule, the drug sensitivity score [8, 21] was 16.6 ± 3.5 DSS, the drug sensitivity score [9, 17] was 10.5 ± 5.4 DSS and the drug sensitivity score [9, 18] was 6.7 ± 5 DSS. It also gave a drug sensitivity score [9, 19] of 13.8 ± 2.3 DSS, a drug sensitivity score [9, 21] of 11.5 ± 1.7 DSS and a drug sensitivity score [10, 17] of 13.4 ± 5.6 DSS. The drug sensitivity score [10, 18] was 11.5 ± 5.7 DSS, the drug sensitivity score [10, 19] was 12.1 ± 5.5 DSS and the drug sensitivity score [10, 20] was 8.77 ± 3.4 DSS. For the same molecule, the drug sensitivity score [10, 21] was 8.4 ± 3.7 DSS, the drug sensitivity score [11, 17] was 5.87 ± 2.1 DSS and the drug sensitivity score [11, 18] was 5.73 ± 2.2 DSS. It also gave a drug sensitivity score [11, 19] of 7.63 ± 4.4 DSS, a drug sensitivity score [11, 20] of 6.6 ± 2.3 DSS and a drug sensitivity score [11, 21] of 7.97 ± 3.2 DSS. For the same molecule, the drug sensitivity score [12, 17] was 10.2 ± 4.3 DSS, the drug sensitivity score [12, 19] was 1.8 ± 1.7 DSS and the drug sensitivity score [12, 20] was 1 ± 0.87 DSS. The drug sensitivity score [12, 21] was 0.967 ± 0.58 DSS, the drug sensitivity score [13, 17] was 10.5 ± 1.6 DSS and the drug sensitivity score [13, 18] was 4.07 ± 2.6 DSS. It also gave a drug sensitivity score [13, 19] of 8.07 ± 0.71 DSS, a drug sensitivity score [13, 20] of 4.63 ± 1.3 DSS and a drug sensitivity score [13, 21] of 5.7 ± 0.1 DSS. It also gave a drug sensitivity score [14, 17] of 16 ± 2.9 DSS, a drug sensitivity score [14, 18] of 12.1 ± 4.3 DSS and a drug sensitivity score [14, 19] of 13.9 ± 2.8 DSS. It also gave a drug sensitivity score [14, 20] of 12.7 ± 3 DSS, a drug sensitivity score [14, 21] of 12.6 ± 4.8 DSS and a drug sensitivity score [15, 17] of 23.6 ± 11 DSS. It also gave a drug sensitivity score [15, 18] of 14.2 ± 7.1 DSS, a drug sensitivity score [15, 19] of 15.9 ± 7.3 DSS and a drug sensitivity score [15, 20] of 13.6 ± 6.6 DSS. The drug sensitivity score [15, 21] was 14.4 ± 8.1 DSS, the drug sensitivity score [16, 17] was 11.4 ± 2.5 DSS and the drug sensitivity score [16, 18] was 4.97 ± 1.8 DSS. It also gave a drug sensitivity score [16, 19] of 10.9 ± 3.1 DSS, a drug sensitivity score [16, 20] of 10.9 ± 3.6 DSS and a drug sensitivity score [16, 21] of 10.4 ± 2.7 DSS.
